System in the first data set: not listed separately
Briefly: Pharmacokinetics in mice after single oral dosing, blood and liver exposure by LC-MS. Type of data set: in vivo, mice (C57/bl6/J). The note with it: male, C57/bl6/J, mouse, liver/blood, single oral dose 20 mg/kg, time point 12 h, read-out: liver/blood ratio. How it is done: The pharmacokinetics of the compounds was assessed in mice after single dosing and oral administrations. Blood and liver exposure was measured via LC-MS.
The study design was as follows:
Animals: C57/bl6/J (Janvier) males Diet: standard rodent chow Dose: 20 mg/kg Animal handling: animals were withdrawn from food at least 12 h before administration Design: single dose oral administration, n=3 animals per group Sacrifice: at stated time point (4, 12 or 24 h) after administration Bioanalytics: LC-MS of liver and blood samples
`Cc1ccc2c(F)cccc2c1C(=O)N(Cc1ccc(-c2cccc(C(C)(C)C(=O)O)c2)cc1)Cc1ccc(C(F)(F)F)o1` [27/12]: the Kp at 12 h was found to be 11.
On the same count and under the same terms, next, `Cc1cc(C)c(CN(Cc2ccc(-c3cccc(C(C)(C)C(=O)O)c3)cc2)Cc2ccc(C(F)(F)F)o2)c(C)c1` [Example 10]: 2.7.

The same data set, now with this note: single oral dose 20 mg/kg, time point 12 h.
As for `Cc1ccc2c(F)cccc2c1C(=O)N(Cc1ccc(-c2cccc(C(C)(C)C(=O)O)c2)cc1)Cc1ccc(C(F)(F)F)o1` [27/12], the blood/plasma exposure was found to be 3.99 µM and the liver exposure came out at 43.7 µM.
On the same counts, the results for `Cc1cc(C)c(CN(Cc2ccc(-c3cccc(C(C)(C)C(=O)O)c3)cc2)Cc2ccc(C(F)(F)F)o2)c(C)c1` [Example 10] are 0.57 µM and 1.5 µM.

In a further data set the target is T1, LXRβ ligand-binding domain (LBD) (Homo sapiens, UniProt P55055, INS174Q).
T1 construct: or LXR (amino acids 156-461); expressed in transfected cells; host or cells: HEK293
T1 sequence (P55055 with tags, fused parts or gaps INS174Q limits assumed): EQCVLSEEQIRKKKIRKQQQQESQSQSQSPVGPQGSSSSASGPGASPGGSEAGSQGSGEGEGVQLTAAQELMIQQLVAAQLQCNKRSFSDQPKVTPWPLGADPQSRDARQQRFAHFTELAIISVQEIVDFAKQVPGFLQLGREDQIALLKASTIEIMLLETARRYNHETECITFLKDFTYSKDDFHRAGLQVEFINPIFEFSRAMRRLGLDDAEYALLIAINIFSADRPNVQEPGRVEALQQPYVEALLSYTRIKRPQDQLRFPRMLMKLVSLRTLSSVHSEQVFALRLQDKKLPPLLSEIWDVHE
Briefly: LXR Gal4 reporter transient transfection assay, mammalian two-hybrid, LBD-M2H Gal4β. Type of data set: cell-based. The note with it: HEK293 cells; inverse agonist unless *. How it is done: The tested compounds were usually dissolved, tested and stored as 20 mM stock solutions in DMSO. Since sulfonyl acetic acid derivatives tend to decarboxylate under these conditions, these stock solutions were prepared, tested and stored as 20 mM DMSO stock solutions containing 100 mM trifluoroacetic acid (5 equivalents). Sulfonyl acetic acid derivatives are shelf stable as solid at rt for long time as reported by Griesbrecht et al. (Synlett 2010:374) or Faucher et al. (J. Med. Chem. 2004; 47:18).
LXR Gal4 Reporter Transient Transfection Assays
LXRα and LXRβ activity status was determined via detection of interaction with coactivator and corepressor proteins in mammalian two-hybrid experiments (M2H). For this, via transient transfection the full length (FL) proteins of LXRα (amino acids 1-447; NP005684; SEQ ID NO:1) or LXRβ-(amino acids 1-461; NP009052; SEQ ID NO:2) or the ligand-binding domains (LBD) of LXRα (amino acids 155-447 SEQ ID NO:3) or LXR (amino acids 156-461; SEQ ID NO:4) were expressed from pCMV-AD (Stratagene) as fusions to the transcriptional activation domain of NFkB. As cofactors, domains of either the steroid receptor coactivator 1 (SRC1; amino acids 552-887; SEQ ID NO:5) or of the corepressor NCoR (amino acids 1906-2312; NP006302; SEQ ID NO:6) were expressed as fusions to the DNA binding domain of the yeast transcription factor GAL4 (from pCMV-BD; Stratagene). Interaction was monitored via activation of a coexpressed Firefly Luciferase Reporter gene under control of a promoter containing repetitive GAL4 response elements (vector pFRLuc; Stratagene). Transfection efficiency was controlled via cotransfection of constitutively active pRL-CMV Renilla reniformis luciferase reporter (Promega). HEK293 cells were grown in minimum essential medium (MEM) with 2 mM L-glutamine and Earle's balanced salt solution supplemented with 8.3% fetal bovine serum, 0.1 mM non-essential amino acids, 1 mM sodium pyruvate, at 37° C. in 5% CO2. 3.5×10^4 cells/well were plated in 96-well cell culture plates in growth medium supplemented with 8.3% fetal bovine serum for 16-20 h to—90% confluency. For transfection, medium was taken off and LXR and cofactor expressing plasmids as well as the reporter plasmids are added in 30 μL OPTIMEM/well including polyethylene-imine (PEI) as vehicle. Typical amounts of plasmids transfected/well: pCMV-AD-LXR (5 ng), pCMV-BD-cofactor (5 ng), pFR-Luc (100 ng), pRL-CMV (0.5 ng). Compound stocks were prepared in DMSO, prediluted in MEM to a total volume of 120 μL, and added 4 h after addition of the transfection mixture (final vehicle concentration not exceeding 0.2%). Cells were incubated for additional 16 h, lysed for 10 min in 1×Passive Lysis Buffer (Promega) and Firefly and Renilla luciferase activities were measured sequentially in the same cell extract using buffers containing D-luciferine and coelenterazine, respectively. Measurements of luminescence were done in a BMG-luminometer.
For the molecule `Cc1ccc2ccccc2c1CN(Cc1ccc(-c2nc(C(C)(C)C(=O)O)cs2)cc1)Cc1ccc(C(F)(F)F)o1` [26/3], the EC50 is below 100 nM.
In turn, `COc1cc(CN(Cc2ccc(C(F)(F)F)o2)Cc2c(C)ccc3ccccc23)ccc1-c1cccc(C(C)(C)C(=O)O)c1` [22/1] gave an EC50 of 100 to 1000 nM.

The target in a further data set is T2, LXRα full length (FL) (Homo sapiens, UniProt Q13133).
T2 construct: the full length (FL) proteins of LXRα (amino acids 1-447); NP005684; expressed in transfected cells; host or cells: HEK293
T2 sequence (Q13133 1-447): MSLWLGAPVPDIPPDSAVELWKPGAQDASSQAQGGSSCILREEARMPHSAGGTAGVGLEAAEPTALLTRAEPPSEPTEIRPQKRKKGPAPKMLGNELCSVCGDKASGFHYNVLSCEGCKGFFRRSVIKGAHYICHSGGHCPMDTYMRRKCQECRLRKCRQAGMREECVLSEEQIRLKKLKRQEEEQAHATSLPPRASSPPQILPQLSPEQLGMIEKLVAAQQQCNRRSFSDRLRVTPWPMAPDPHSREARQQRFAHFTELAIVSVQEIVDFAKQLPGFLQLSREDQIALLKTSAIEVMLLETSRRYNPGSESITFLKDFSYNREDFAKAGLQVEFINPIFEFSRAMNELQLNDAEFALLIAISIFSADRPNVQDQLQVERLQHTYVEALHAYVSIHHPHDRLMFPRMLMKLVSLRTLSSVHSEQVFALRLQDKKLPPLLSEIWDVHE
Briefly: LXR Gal4 reporter transient transfection assay, mammalian two-hybrid, FL-M2H Gal4α. Type of data set: cell-based. The note with it: HEK293 cells; inverse agonist unless *. The gist of the method:
(§1)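 HEK293 cells transiently cotransfected with NFkB-AD fusions of full-length or LBD LXRα/β, GAL4-DBD fusions of SRC1 coactivator or NCoR corepressor domains, GAL4-driven firefly luciferase and Renilla control. Compound added 4 h post-transfection (≤0.2% DMSO), 16 h incubation; firefly and Renilla luminescence read sequentially.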
`Cc1ccc2c(F)cccc2c1C(=O)N(Cc1ccc(-c2cccc(C(C)(C)C(=O)O)c2)cc1)Cc1ccc(C(F)(F)F)o1` [27/12] came in with a concentration for a half-maximal effect (EC50) below 100 nM.
`Cc1cc(C)c(CN(Cc2ccc(-c3cccc(C(C)(C)C(=O)O)c3)cc2)Cc2ccc(C(F)(F)F)o2)c(C)c1` [Example 10]: the EC50 lay within 100 to 1000 nM.
`Cc1ccc2ccccc2c1CN(Cc1ccc(-c2cccc([C@@H](C)C(=O)O)c2)cc1)Cc1ccc(C(F)(F)F)o1` [27/72] registered an EC50 below 100 nM.

A further data set deals with T3, GST-LXRβ ligand-binding domain (Homo sapiens, UniProt P55055, INS174Q).
T3 construct: amino acids 156-461; NP009052; made in house; host or cells: E. coli
T3 sequence (P55055 with tags, fused parts or gaps INS174Q limits assumed): T1 sequence (P55055 with tags, fused parts or gaps INS174Q limits assumed)
Briefly: TR-FRETβ activity assay (NCoA3 coactivator peptide recruitment). It is filed as biochemical. The note with it: 1 μM 24(S)-25-epoxycholesterol as prestimulating agonist; inverse agonist unless *. An outline of the steps:
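E. coli-expressed GST-LXRβ LBD (aa 156-461, 76 nM) with biotinylated NCoA3 peptide (400 nM), anti-GST-Tb cryptate donor and streptavidin-XL665 acceptor in 240 mM KCl, BSA, 0.002% Triton X-100. Equilibrated 1 h at 4° C; TR-FRET read at 615/665 nm, triplicates.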
As for `Cc1ccc2ccccc2c1CN(Cc1ccc(-c2nc(C(C)(C)C(=O)O)cs2)cc1)Cc1ccc(C(F)(F)F)o1` [26/3], the EC50 lay within 1000 to 10000 nM.
Take `Cc1ccc2c(F)cccc2c1C(=O)N(Cc1ccc(-c2cccc(C(C)(C)C(=O)O)c2)cc1)Cc1ccc(C(F)(F)F)o1` [27/12]: the EC50 was below 100 nM.
Still for that read-out and setting: next, `Cc1cc(C)c(CN(Cc2ccc(-c3cccc(C(C)(C)C(=O)O)c3)cc2)Cc2ccc(C(F)(F)F)o2)c(C)c1` [Example 10]: below 100 nM; `Cc1ccc2ccccc2c1CN(Cc1ccc(-c2cccc([C@@H](C)C(=O)O)c2)cc1)Cc1ccc(C(F)(F)F)o1` [27/72]: 100 to 1000 nM; `COc1cc(CN(Cc2ccc(C(F)(F)F)o2)Cc2c(C)ccc3ccccc23)ccc1-c1cccc(C(C)(C)C(=O)O)c1` [22/1]: 1000 to 10000 nM.

The next data set concerns the target T4, LXRβ full length (FL) (Homo sapiens, UniProt P55055, INS174Q).
T4 construct: the full length (FL) proteins of LXRα (amino acids 1-447); NP005684; NP009052; expressed in transfected cells; host or cells: HEK293
T4 sequence (P55055 with tags, fused parts or gaps INS174Q): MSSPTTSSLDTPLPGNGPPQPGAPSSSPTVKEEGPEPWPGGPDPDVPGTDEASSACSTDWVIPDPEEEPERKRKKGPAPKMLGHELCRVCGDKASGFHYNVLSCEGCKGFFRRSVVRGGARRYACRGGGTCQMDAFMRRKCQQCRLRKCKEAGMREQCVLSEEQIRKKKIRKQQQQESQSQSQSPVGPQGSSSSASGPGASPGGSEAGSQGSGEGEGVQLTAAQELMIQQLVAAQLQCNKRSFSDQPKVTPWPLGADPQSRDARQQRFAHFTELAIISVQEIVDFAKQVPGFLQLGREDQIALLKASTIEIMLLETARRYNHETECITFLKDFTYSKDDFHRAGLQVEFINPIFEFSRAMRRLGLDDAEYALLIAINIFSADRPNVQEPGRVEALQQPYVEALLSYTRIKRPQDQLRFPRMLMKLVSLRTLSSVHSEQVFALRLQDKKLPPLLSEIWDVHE
Briefly: LXR Gal4 reporter transient transfection assay, mammalian two-hybrid, FL-M2H Gal4β. The note with it: HEK293 cells; inverse agonist unless *. It is filed as cell-based. The gist of the method: as §1
For `Cc1ccc2c(F)cccc2c1C(=O)N(Cc1ccc(-c2cccc(C(C)(C)C(=O)O)c2)cc1)Cc1ccc(C(F)(F)F)o1` [27/12], the EC50 is below 100 nM.
Molecule `Cc1cc(C)c(CN(Cc2ccc(-c3cccc(C(C)(C)C(=O)O)c3)cc2)Cc2ccc(C(F)(F)F)o2)c(C)c1` [Example 10] showed an EC50 of 100 to 1000 nM.

System in the next data set: not listed separately
Briefly: Short term HFD mouse model: liver and plasma exposure after multiple oral dosing. It is filed as in vivo, mice (C57BL/6J). The note with it: C57BL/6J, liver, HFD mice, three oral doses of 10 mg/kg each, 4 h after final dose, read-out: liver exposure, 4 h. The text has this: Short Term HFD Mouse Model:
For this, C57BL/6J were purchased from Elevage Janvier (Rennes, France) at the age of 8 weeks. After an acclimation period of two weeks, animals were prefed on a high fat diet (HFD) (Ssniff Spezialdiäten GmbH, Germany, Surwit EF D12330 mod, Cat. No. E15771-34), with 60 kcal % from fat plus 1% (w/w) extra cholesterol (Sigma-Aldrich, St. Louis, Mo.) for 5 days. Animals were maintained on this diet during treatment with LXR modulators. The test compounds were formulated in 0.5% hydroxypropylmethylcellulose (HPMC) and administered in three doses (from 1.5 to 20 mg/kg each) by oral gavage according to the following schedule: on day one, animals received treatment in the morning and the evening (ca. 17:00), on day two animals received the final treatment in the morning after a 4 h fast and were sacrificed 4 h thereafter. Animal work was conducted according to the national guidelines for animal care in Germany.
Multiple oral dosing of compounds from the present invention in mice lead to a high liver exposure with a favourable liver to plasma ratio. […] These genes are related to hepatic de-novo lipogenesis. A suppression of these genes will reduce liver fat (liver triglycerides).
For the molecule `Cc1ccc2ccccc2c1CN(Cc1ccc(-c2cccc([C@@H](C)C(=O)O)c2)cc1)Cc1ccc(C(F)(F)F)o1` [27/72], the concentration at 4 h turned out to be 2020 nM.

The data set is the same for the next values; noted with them: C57BL/6J, liver/plasma, HFD mice, three oral doses of 10 mg/kg each, 4 h after final dose, read-out: liver/plasma ratio, 4 h.
With `Cc1ccc2ccccc2c1CN(Cc1ccc(-c2cccc([C@@H](C)C(=O)O)c2)cc1)Cc1ccc(C(F)(F)F)o1` [27/72], the Kp at 4 h amounted to 1.4.

The same data set, now with this note: C57BL/6J, plasma, HFD mice, three oral doses of 10 mg/kg each, 4 h after final dose, read-out: plasma exposure, 4 h.
For the molecule `Cc1ccc2ccccc2c1CN(Cc1ccc(-c2cccc([C@@H](C)C(=O)O)c2)cc1)Cc1ccc(C(F)(F)F)o1` [27/72], the concentration at 4 h was found to be 1440 nM.

The values are drawn from patent US20200131144A1, “AMINE OR (THIO)AMIDE CONTAINING LXR MODULATORS” (Phenex-FXR GmbH, priority 2017, published 2020).
